Measured values as given in ChEMBL document CHEMBL5537169, “Structure-Activity Relationships and Discovery of (S)-6-Isopropyl-2-methoxy-3-(3-methoxypropoxy)-10-oxo-5,10-dihydro-6H-pyrido[1,2-h][1,7]naphthyridine-9-carboxylic Acid (AB-452), a Novel Orally Available HBV RNA Destabilizer” (J Med Chem, 2024).
pEC50: −log10 of the molar value.

What was measured:
[1] = Drug accumulation in Sprague-Dawley rat liver at 10 mg/kg,po measured at 0.083 to 24 hrs post administration by LC-MS/MS analysis; assay type: ADME, organism-based; conditions: in vivo, time 0.083-24 hrs
[2] = Drug accumulation in CD-1 mouse liver at 10 mg/kg,po measured at 0.083 to 24 hrs post administration by LC-MS/MS analysis; assay type: ADME, organism-based; conditions: in vivo, time 0.083-24 hrs
[3] = Apparent volume of distribution at steady state in Sprague-Dawley rat at 10 mg/kg,po measured at 0.083 to 24 hrs post administration by LC-MS/MS analysis; assay type: ADME, organism-based; conditions: in vivo, time 0.083-24 hrs
[4] = Cardiotoxicity in Langendorff-perfused New Zealand White rabbit heart assessed as increase in QT interval upto 10 uM incubated for 45 mins by ECG analysis; assay type: toxicity, tissue-based, Oryctolagus cuniculus; conditions: 0.75 h
[5] = system: Hepatitis B virus; assay: Antiviral activity against AAV-Hepatitis B virus infected in human Primary hepatocyte assessed as reduction in HBsAg level measured after 16 days by ELISA; assay type: functional, organism-based; conditions: 384 h
[6] = system: Hepatitis B virus; assay: Antiviral activity against AAV-Hepatitis B virus infected in human Primary hepatocyte assessed as reduction in HBV DNA level measured after 16 days by ELISA; assay type: functional, organism-based; conditions: 384 h
[7] = system: Hepatitis B virus; assay: Antiviral activity against AAV-Hepatitis B virus infected in human Primary hepatocyte assessed as reduction in HBeAg level measured after 16 days by ELISA; assay type: functional, organism-based; conditions: 384 h
[8] = Toxicity in dog assessed as NOAEL administrated for 28 days; design: species or system Canis lupus familiaris; conditions: in vivo, time 28 day
[9] = Cardiotoxicity in Langendorff-perfused New Zealand White rabbit heart assessed as increase in QRS interval upto 10 uM incubated for 45 mins by ECG analysis; assay type: toxicity, tissue-based, Oryctolagus cuniculus; conditions: 0.75 h
[10] = Cardiotoxicity in Langendorff-perfused New Zealand White rabbit heart assessed as increase in PR interval upto 10 uM incubated for 45 mins by ECG analysis; assay type: toxicity, tissue-based, Oryctolagus cuniculus; conditions: 0.75 h

| Ct [1] [ng/g] | Ct [2] [ng/g] | Vdss(app) [3] [L/kg] | Compound | Activity [4] | pEC50 [5] | pEC50 [6] | pEC50 [7] | NOAEL at 672 h [8] [mg/kg] | Activity [9] | Activity [10] |
| --- | --- | --- | --- | --- | --- | --- | --- | --- | --- | --- |
| 29 | 425 | 0.4 | COCCCOc1cc2c(cc1Cl)-c1cc(=O)c(C(=O)O)cn1[C@H](C(C)C)CO2 | – | – | – | – | – | – | – |
| – | – | – | COCCCOc1cc2c(nc1OC)-c1cc(=O)c(C(=O)O)cn1[C@H](C(C)C)C2 | Non-Toxic | 8.52 | 8.52 | 8.52 | 30 | Non-Toxic | Non-Toxic |
